According to patent publication US9161935B2 (TEVA PHARMACEUTICAL INDUSTRIES, LTD., priority 2012, dated 2015):

Tested on: Moderate to severe Crohn's disease (CD) subjects
Test: Phase IIa trial CD-LAQ-201: safety/tolerability (adverse events)
Assay type: in vivo, human
Description: Safety/Tolerability • 1. Adverse events (AEs). • 2. Clinical laboratory values. • 3. Vital signs. • 4. ECG. • 5. Proportion of subjects who prematurely discontinue treatment. • 6. Proportion of subjects who prematurely discontinue treatment due to AEs. • 7. Time to premature treatment discontinuation. • 8. Time to premature treatment discontinuation due to AEs.

`CCN(C(=O)c1c(O)c2c(Cl)cccc2n(C)c1=O)c1ccccc1` [laquinimod] was tested, and the “dose response relationship for the overall incidence of AEs” value (0.5-2.0 mg/day) was “no apparent dose response relationship”, the “Common Adverse Events: Abdominal Distension” value (Laq 0.5 mg (N = 29)) was 10.3% and the “Common Adverse Events: Abdominal Pain” value (Laq 0.5 mg (N = 29)) was 17.2%. The “Common Adverse Events: Abdominal Pain Upper” value (Laq 0.5 mg (N = 29)) was 3.4%, the “Common Adverse Events: Alanine Aminotransferase Increased” value (Laq 0.5 mg (N = 29)) was 0% and the “Common Adverse Events: Asthenia” value (Laq 0.5 mg (N = 29)) was 3.4%. The “Common Adverse Events: Back Pain” value (Laq 0.5 mg (N = 29)) was 10.3%, the “Common Adverse Events: Cough” value (Laq 0.5 mg (N = 29)) was 6.9% and the “Common Adverse Events: Crohn's Disease^a” value (Laq 0.5 mg (N = 29)) was 6.9%. The “Common Adverse Events: Diarrhoea” value (Laq 0.5 mg (N = 29)) was 20.7%, the “Common Adverse Events: Dizziness” value (Laq 0.5 mg (N = 29)) was 3.4% and the “Common Adverse Events: Fatigue” value (Laq 0.5 mg (N = 29)) was 6.9%. The “Common Adverse Events: Headache” value (Laq 0.5 mg (N = 29)) was 24.1%, the “Common Adverse Events: Myalgia” value (Laq 0.5 mg (N = 29)) was 0% and the “Common Adverse Events: Nausea” value (Laq 0.5 mg (N = 29)) was 3.4%. The “Common Adverse Events: Pyrexia” value (Laq 0.5 mg (N = 29)) was 24.1%, the “Common Adverse Events: Rectal Haemorrhage” value (Laq 0.5 mg (N = 29)) was 0% and the “Common Adverse Events: Tachycardia” value (Laq 0.5 mg (N = 29)) was 0%. The “Common Adverse Events: Vomiting” value (Laq 0.5 mg (N = 29)) was 17.2%, the “Common Adverse Events: Abdominal Distension” value (Laq 1.0 mg (N = 30)) was 0% and the “Common Adverse Events: Abdominal Pain” value (Laq 1.0 mg (N = 30)) was 13.3%. For the same molecule, the “Common Adverse Events: Abdominal Pain Upper” value (Laq 1.0 mg (N = 30)) was 0%, the “Common Adverse Events: Alanine Aminotransferase Increased” value (Laq 1.0 mg (N = 30)) was 10% and the “Common Adverse Events: Asthenia” value (Laq 1.0 mg (N = 30)) was 6.7%. For the same molecule, the “Common Adverse Events: Back Pain” value (Laq 1.0 mg (N = 30)) was 10%, the “Common Adverse Events: Cough” value (Laq 1.0 mg (N = 30)) was 10% and the “Common Adverse Events: Crohn's Disease^a” value (Laq 1.0 mg (N = 30)) was 16.7%. The “Common Adverse Events: Diarrhoea” value (Laq 1.0 mg (N = 30)) was 3.3%, the “Common Adverse Events: Dizziness” value (Laq 1.0 mg (N = 30)) was 3.3% and the “Common Adverse Events: Fatigue” value (Laq 1.0 mg (N = 30)) was 0%. The “Common Adverse Events: Headache” value (Laq 1.0 mg (N = 30)) was 26.7%, the “Common Adverse Events: Myalgia” value (Laq 1.0 mg (N = 30)) was 3.3% and the “Common Adverse Events: Nausea” value (Laq 1.0 mg (N = 30)) was 20%. The “Common Adverse Events: Pyrexia” value (Laq 1.0 mg (N = 30)) was 3.3%, the “Common Adverse Events: Rectal Haemorrhage” value (Laq 1.0 mg (N = 30)) was 3.3% and the “Common Adverse Events: Tachycardia” value (Laq 1.0 mg (N = 30)) was 0%. For the same molecule, the “Common Adverse Events: Vomiting” value (Laq 1.0 mg (N = 30)) was 20%, the “Common Adverse Events: Abdominal Distension” value (Laq 1.5 mg (N = 29)) was 3.4% and the “Common Adverse Events: Abdominal Pain” value (Laq 1.5 mg (N = 29)) was 24.1%. For the same molecule, the “Common Adverse Events: Abdominal Pain Upper” value (Laq 1.5 mg (N = 29)) was 6.9%, the “Common Adverse Events: Alanine Aminotransferase Increased” value (Laq 1.5 mg (N = 29)) was 0% and the “Common Adverse Events: Asthenia” value (Laq 1.5 mg (N = 29)) was 10.3%. The “Common Adverse Events: Back Pain” value (Laq 1.5 mg (N = 29)) was 13.8%, the “Common Adverse Events: Cough” value (Laq 1.5 mg (N = 29)) was 6.9% and the “Common Adverse Events: Crohn's Disease^a” value (Laq 1.5 mg (N = 29)) was 17.2%. The “Common Adverse Events: Diarrhoea” value (Laq 1.5 mg (N = 29)) was 0%, the “Common Adverse Events: Dizziness” value (Laq 1.5 mg (N = 29)) was 10.3% and the “Common Adverse Events: Fatigue” value (Laq 1.5 mg (N = 29)) was 10.3%. The “Common Adverse Events: Headache” value (Laq 1.5 mg (N = 29)) was 24.1%, the “Common Adverse Events: Myalgia” value (Laq 1.5 mg (N = 29)) was 0% and the “Common Adverse Events: Nausea” value (Laq 1.5 mg (N = 29)) was 6.9%. For the same molecule, the “Common Adverse Events: Pyrexia” value (Laq 1.5 mg (N = 29)) was 20.7%, the “Common Adverse Events: Rectal Haemorrhage” value (Laq 1.5 mg (N = 29)) was 10.3% and the “Common Adverse Events: Tachycardia” value (Laq 1.5 mg (N = 29)) was 10.3%. The “Common Adverse Events: Vomiting” value (Laq 1.5 mg (N = 29)) was 3.4%, the “Common Adverse Events: Abdominal Distension” value (Laq 2.0 mg (N = 29)) was 3.4% and the “Common Adverse Events: Abdominal Pain” value (Laq 2.0 mg (N = 29)) was 24.1%. For the same molecule, the “Common Adverse Events: Abdominal Pain Upper” value (Laq 2.0 mg (N = 29)) was 17.2%, the “Common Adverse Events: Alanine Aminotransferase Increased” value (Laq 2.0 mg (N = 29)) was 3.4% and the “Common Adverse Events: Asthenia” value (Laq 2.0 mg (N = 29)) was 6.9%. The “Common Adverse Events: Back Pain” value (Laq 2.0 mg (N = 29)) was 3.4%, the “Common Adverse Events: Cough” value (Laq 2.0 mg (N = 29)) was 3.4% and the “Common Adverse Events: Crohn's Disease^a” value (Laq 2.0 mg (N = 29)) was 13.8%. The “Common Adverse Events: Diarrhoea” value (Laq 2.0 mg (N = 29)) was 10.3%, the “Common Adverse Events: Dizziness” value (Laq 2.0 mg (N = 29)) was 3.4% and the “Common Adverse Events: Fatigue” value (Laq 2.0 mg (N = 29)) was 0%. For the same molecule, the “Common Adverse Events: Headache” value (Laq 2.0 mg (N = 29)) was 44.8%, the “Common Adverse Events: Myalgia” value (Laq 2.0 mg (N = 29)) was 17.2% and the “Common Adverse Events: Nausea” value (Laq 2.0 mg (N = 29)) was 20.7%. The “Common Adverse Events: Pyrexia” value (Laq 2.0 mg (N = 29)) was 13.8%, the “Common Adverse Events: Rectal Haemorrhage” value (Laq 2.0 mg (N = 29)) was 0% and the “Common Adverse Events: Tachycardia” value (Laq 2.0 mg (N = 29)) was 3.4%. For the same molecule, the “Common Adverse Events: Vomiting” value (Laq 2.0 mg (N = 29)) was 20.7%, the tolerability (active Crohns disease) was “well tolerated” and the “change from Baseline in biochemical or hematological parameters” value (any of the dose groups) was “no consistent trends in change from Baseline”. For the same molecule, the “deaths during the study” value (in vivo) was “No subject died”, the “severity of most AEs” value (in vivo) was “mild or moderate” and the “changes in vital signs or ECGs” value (laquinimod dose groups) was “no clinically significant changes”. The “most common SAE: CD (exacerbation), % of patients” value (laquinimod groups, pooled placebo 1.6%) was 3.4-6.9% and the “overall incidence of AEs” value (laquinimod groups, pooled placebo 82.5%) was 86.2-96.7%.
